Results published in ChEMBL document CHEMBL1201862, “PubChem BioAssay data set” (2004).
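Grown in 96-well plates, cells were treated for 48 hours with each compound at five concentrations. Insufficient inhibition: endpoint recorded as highest concentration tested. Here, GI50 denotes the concentration required for 50% inhibition of growth.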 The source made the active and inactive calls. No stated cut-off is given here; in the data, active = GI50 up to about 1.1 µM and inactive = higher.

How the values were obtained:
Assay in all cases: inhibition of tumour cell growth, NCI panel, 48 h
786-0 = system: 786-0
A498 = system: A498
A549 = system: A549
ACHN = system: ACHN
BT-549 = system: BT-549
CAKI-1 = system: CAKI-1
CCRF-CEM = system: CCRF-CEM
COLO 205 = system: COLO 205
DU-145 = system: DU-145
EKVX = system: EKVX
HCT-116 = system: HCT-116
HCT-15 = system: HCT-15
HL-60 = system: HL-60
HOP-62 = system: HOP-62
HOP-92 = system: HOP-92
HT-29 = system: HT-29
Hs-578T = system: Hs-578T
IGROV-1 = system: IGROV-1
K562 = system: K562
KM12 = system: KM12
LOX IMVI = system: LOX IMVI
M14 = system: M14
MCF7 = system: MCF7
MDA-MB-231 = system: MDA-MB-231
MDA-MB-435 = system: MDA-MB-435
MDA-N = system: MDA-N
Malme-3M = system: Malme-3M
NCI-H226 = system: NCI-H226
NCI-H23 = system: NCI-H23
NCI-H460 = system: NCI-H460
NCI-H522 = system: NCI-H522
NCI/ADR-RES = system: NCI/ADR-RES
OVCAR-3 = system: OVCAR-3
OVCAR-4 = system: OVCAR-4
OVCAR-5 = system: OVCAR-5
OVCAR-8 = system: OVCAR-8
PC-3 = system: PC-3
RPMI-8226 = system: RPMI-8226
RXF 393 = system: RXF 393
SF-268 = system: SF-268
SF-295 = system: SF-295
SK-MEL-28 = system: SK-MEL-28
SK-MEL-2 = system: SK-MEL-2
SK-MEL-5 = system: SK-MEL-5
SK-OV-3 = system: SK-OV-3
SN12C = system: SN12C
SNB-19 = system: SNB-19
SNB-75 = system: SNB-75
SR = system: SR
SW-620 = system: SW-620
T47D = system: T47D
TK-10 = system: TK-10
U-251 = system: U-251
UACC-62 = system: UACC-62
UO-31 = system: UO-31
HCC 2998 = system: HCC 2998
SF-539 = system: SF-539
UACC-257 = system: UACC-257
MOLT-4 = system: MOLT-4

Structure (SMILES): CC(O)(CNS(=O)(=O)c1ccccc1)c1ccccc1 (stereo not drawn)
- GI50 (786-0): > 100 µM (inactive)
- GI50 (A498): > 100 µM (inactive)
- GI50 (A549): > 100 µM (inactive)
- GI50 (ACHN): > 100 µM (inactive)
- GI50 (BT-549): > 100 µM (inactive)
- GI50 (CAKI-1): > 100 µM (inactive)
- GI50 (CCRF-CEM): > 100 µM (inactive)
- GI50 (COLO 205): > 100 µM (inactive)
- GI50 (DU-145): > 100 µM (inactive)
- GI50 (EKVX): > 100 µM (inactive)
- GI50 (HCT-116): > 100 µM (inactive)
- GI50 (HCT-15): > 100 µM
- GI50 (HL-60): > 100 µM (inactive)
- GI50 (HOP-62): > 100 µM (inactive)
- GI50 (HOP-92): > 100 µM (inactive)
- GI50 (HT-29): > 100 µM (inactive)
- GI50 (Hs-578T): > 100 µM (inactive)
- GI50 (IGROV-1): > 100 µM (inactive)
- GI50 (K562): > 100 µM (inactive)
- GI50 (KM12): > 100 µM (inactive)
- GI50 (LOX IMVI): > 100 µM (inactive)
- GI50 (M14): > 100 µM (inactive)
- GI50 (MCF7): > 100 µM (inactive)
- GI50 (MDA-MB-231): > 100 µM (inactive)
- GI50 (MDA-MB-435): > 100 µM (inactive)
- GI50 (MDA-N): > 100 µM (inactive)
- GI50 (Malme-3M): > 100 µM (inactive)
- GI50 (NCI-H226): > 100 µM (inactive)
- GI50 (NCI-H23): > 100 µM (inactive)
- GI50 (NCI-H460): > 100 µM (inactive)
- GI50 (NCI-H522): > 100 µM (inactive)
- GI50 (NCI/ADR-RES): > 100 µM (inactive)
- GI50 (OVCAR-3): > 100 µM (inactive)
- GI50 (OVCAR-4): > 100 µM (inactive)
- GI50 (OVCAR-5): > 100 µM (inactive)
- GI50 (OVCAR-8): > 100 µM (inactive)
- GI50 (PC-3): > 100 µM (inactive)
- GI50 (RPMI-8226): > 100 µM (inactive)
- GI50 (RXF 393): > 100 µM (inactive)
- GI50 (SF-268): > 100 µM (inactive)
- GI50 (SF-295): > 100 µM (inactive)
- GI50 (SK-MEL-28): > 100 µM (inactive)
- GI50 (SK-MEL-2): > 100 µM (inactive)
- GI50 (SK-MEL-5): > 100 µM (inactive)
- GI50 (SK-OV-3): > 100 µM (inactive)
- GI50 (SN12C): > 100 µM (inactive)
- GI50 (SNB-19): > 100 µM (inactive)
- GI50 (SNB-75): > 100 µM (inactive)
- GI50 (SR): > 100 µM (inactive)
- GI50 (SW-620): > 100 µM (inactive)
- GI50 (T47D): > 100 µM (inactive)
- GI50 (TK-10): > 100 µM (inactive)
- GI50 (U-251): > 100 µM (inactive)
- GI50 (UACC-62): > 100 µM (inactive)
- GI50 (UO-31): > 100 µM (inactive)

Structure (SMILES): N#C/C=c1/c2ccccc2n2nc3ccccc3c12
- GI50 (786-0): 5.01 µM (inactive)
- GI50 (A498): 13.7 µM (inactive)
- GI50 (A549): 30.2 µM (inactive)
- GI50 (ACHN): 6.71 µM (inactive)
- GI50 (BT-549): > 100 µM (inactive)
- GI50 (CAKI-1): 6.85 µM (inactive)
- GI50 (CCRF-CEM): 81.7 µM (inactive)
- GI50 (COLO 205): 16.8 µM (inactive)
- GI50 (DU-145): > 100 µM (inactive)
- GI50 (EKVX): 24.5 µM (inactive)
- GI50 (HCC 2998): 26.5 µM (inactive)
- GI50 (HCT-116): 3.09 µM (inactive)
- GI50 (HCT-15): 43.3 µM
- GI50 (HL-60): > 100 µM (inactive)
- GI50 (HOP-62): 17 µM (inactive)
- GI50 (HT-29): 25.6 µM (inactive)
- GI50 (Hs-578T): 22.1 µM (inactive)
- GI50 (IGROV-1): 7.19 µM (inactive)
- GI50 (K562): > 100 µM (inactive)
- GI50 (KM12): 17.3 µM (inactive)
- GI50 (LOX IMVI): 8.13 µM (inactive)
- GI50 (M14): 51.9 µM (inactive)
- GI50 (MCF7): 11.3 µM (inactive)
- GI50 (MDA-MB-231): 3.61 µM (inactive)
- GI50 (MDA-MB-435): > 100 µM (inactive)
- GI50 (MDA-N): > 100 µM (inactive)
- GI50 (Malme-3M): 46.6 µM (inactive)
- GI50 (NCI-H23): 22.3 µM (inactive)
- GI50 (NCI-H460): 8.09 µM (inactive)
- GI50 (NCI-H522): 12.5 µM (inactive)
- GI50 (NCI/ADR-RES): 14.9 µM (inactive)
- GI50 (OVCAR-3): 34.5 µM (inactive)
- GI50 (OVCAR-4): 11.6 µM (inactive)
- GI50 (OVCAR-5): 67.6 µM (inactive)
- GI50 (OVCAR-8): 11.7 µM (inactive)
- GI50 (PC-3): 68.4 µM (inactive)
- GI50 (RPMI-8226): 7.36 µM (inactive)
- GI50 (RXF 393): 16.8 µM (inactive)
- GI50 (SF-268): 10.9 µM (inactive)
- GI50 (SF-295): 21.7 µM (inactive)
- GI50 (SF-539): 8.69 µM (inactive)
- GI50 (SK-MEL-28): > 100 µM (inactive)
- GI50 (SK-MEL-2): 48.6 µM (inactive)
- GI50 (SK-MEL-5): 26.7 µM (inactive)
- GI50 (SK-OV-3): 5.65 µM (inactive)
- GI50 (SN12C): 25.2 µM (inactive)
- GI50 (SNB-19): 16 µM (inactive)
- GI50 (SR): 5.79 µM (inactive)
- GI50 (SW-620): 25.6 µM (inactive)
- GI50 (T47D): > 100 µM (inactive)
- GI50 (TK-10): 8.02 µM (inactive)
- GI50 (U-251): 12 µM (inactive)
- GI50 (UACC-257): > 100 µM (inactive)
- GI50 (UACC-62): 14.9 µM (inactive)
- GI50 (UO-31): 10.8 µM (inactive)

Structure (SMILES): Cc1ccc(OP(=O)(Oc2ccc(C)cc2)N2C=Cc3ccccc3C2C#N)cc1 (stereo not drawn)
- GI50 (786-0): > 100 µM (inactive)
- GI50 (A498): > 100 µM (inactive)
- GI50 (A549): > 100 µM (inactive)
- GI50 (ACHN): > 100 µM (inactive)
- GI50 (BT-549): > 100 µM (inactive)
- GI50 (CAKI-1): > 100 µM (inactive)
- GI50 (CCRF-CEM): > 100 µM (inactive)
- GI50 (COLO 205): > 100 µM (inactive)
- GI50 (DU-145): > 100 µM (inactive)
- GI50 (EKVX): > 100 µM (inactive)
- GI50 (HCT-116): > 100 µM (inactive)
- GI50 (HCT-15): > 100 µM
- GI50 (HL-60): > 100 µM (inactive)
- GI50 (HOP-62): > 100 µM (inactive)
- GI50 (HOP-92): > 100 µM (inactive)
- GI50 (HT-29): > 100 µM (inactive)
- GI50 (Hs-578T): 70.5 µM (inactive)
- GI50 (IGROV-1): > 100 µM (inactive)
- GI50 (K562): > 100 µM (inactive)
- GI50 (KM12): > 100 µM (inactive)
- GI50 (LOX IMVI): > 100 µM (inactive)
- GI50 (M14): > 100 µM (inactive)
- GI50 (MCF7): > 100 µM (inactive)
- GI50 (MDA-MB-231): > 100 µM (inactive)
- GI50 (MDA-MB-435): > 100 µM (inactive)
- GI50 (MDA-N): > 100 µM (inactive)
- GI50 (MOLT-4): > 100 µM (inactive)
- GI50 (Malme-3M): 82.8 µM (inactive)
- GI50 (NCI-H226): > 100 µM (inactive)
- GI50 (NCI-H23): > 100 µM (inactive)
- GI50 (NCI-H460): > 100 µM (inactive)
- GI50 (NCI-H522): 48.8 µM (inactive)
- GI50 (NCI/ADR-RES): > 100 µM (inactive)
- GI50 (OVCAR-3): > 100 µM (inactive)
- GI50 (OVCAR-4): > 100 µM (inactive)
- GI50 (OVCAR-5): > 100 µM (inactive)
- GI50 (OVCAR-8): > 100 µM (inactive)
- GI50 (PC-3): > 100 µM (inactive)
- GI50 (RPMI-8226): > 100 µM (inactive)
- GI50 (RXF 393): > 100 µM (inactive)
- GI50 (SF-268): > 100 µM (inactive)
- GI50 (SF-295): > 100 µM (inactive)
- GI50 (SF-539): > 100 µM (inactive)
- GI50 (SK-MEL-28): > 100 µM (inactive)
- GI50 (SK-MEL-2): > 100 µM (inactive)
- GI50 (SK-MEL-5): > 100 µM (inactive)
- GI50 (SK-OV-3): > 100 µM (inactive)
- GI50 (SN12C): > 100 µM (inactive)
- GI50 (SNB-19): > 100 µM (inactive)
- GI50 (SNB-75): > 100 µM (inactive)
- GI50 (SR): > 100 µM (inactive)
- GI50 (SW-620): > 100 µM (inactive)
- GI50 (T47D): > 100 µM (inactive)
- GI50 (TK-10): > 100 µM (inactive)
- GI50 (U-251): > 100 µM (inactive)
- GI50 (UACC-257): > 100 µM (inactive)
- GI50 (UACC-62): > 100 µM (inactive)
- GI50 (UO-31): > 100 µM (inactive)
